Data: ChEMBL document CHEMBL4393657, “Tetrazole hybrids and their antifungal activities” (2019)
≈ marks a conversion by molar mass, not a printed value.

Key:
Type in all cases: functional
Candida albicans [1] = assay: Antifungal activity against Candida albicans assessed as inhibition zone at 100 ug/ml; details: read-out: IZ
Aspergillus niger [2] = assay: Antifungal activity against Aspergillus niger assessed as reduction in fungal cell growth incubated for 48 hrs by broth microdilution method
Candida albicans [3] = assay: Antifungal activity against Candida albicans assessed as inhibition zone at 125 ug/ml by disk diffusion method; details: read-out: IZ
Pichia kudriavzevii [4] = assay: Antifungal activity against Candida krusei assessed as reduction in fungal cell growth incubated for 24 hrs by broth microdilution method
Pichia kudriavzevii [5] = assay: Antifungal activity against Candida krusei assessed as reduction in fungal cell growth incubated for 48 hrs by broth microdilution method
Aspergillus fumigatus [6] = assay: Antifungal activity against Aspergillus fumigatus assessed as reduction in fungal cell growth incubated for 48 hrs by broth microdilution method
Candida albicans [7] = assay: Antifungal activity against Candida albicans assessed as reduction in fungal cell growth incubated for 24 and 72 hrs by cup plate method
Aspergillus flavus [8] = assay: Antifungal activity against Aspergillus flavus assessed as inhibition zone at 20 ug/ml by disk diffusion method; details: read-out: IZ
Nakaseomyces glabratus [9] = assay: Antifungal activity against Candida glabrata assessed as reduction in fungal cell growth incubated for 48 hrs by broth microdilution method
Aspergillus fumigatus [10] = assay: Antifungal activity against Aspergillus fumigatus assessed as inhibition zone at 20 ug/ml by disk diffusion method; details: read-out: IZ
Candida albicans [11] = assay: Antifungal activity against Candida albicans assessed as reduction in fungal cell growth incubated for 24 hrs by broth microdilution method
Candida albicans [12] = assay: Antifungal activity against Candida albicans V-01-191A-261 assessed as reduction in fungal cell growth incubated for 48 hrs by broth microdilution method; details: V-01-191A-261, 48 h
Candida tropicalis [13] = assay: Antifungal activity against Candida tropicalis assessed as reduction in fungal cell growth incubated for 48 hrs by broth microdilution method
Aspergillus niger [14] = assay: Antifungal activity against Aspergillus niger assessed as reduction in fungal cell growth incubated for 72 hrs by broth microdilution method
Aspergillus niger [15] = assay: Antifungal activity against Aspergillus niger assessed as reduction in fungal cell growth incubated for 48 hrs by broth microdilution susceptibility method
Candida albicans [16] = assay: In vivo antifungal activity against Candida albicans TA infected in CDF-1 mouse dosed orally assessed as survival of mouse; details: po
Aspergillus flavus [17] = assay: Antifungal activity against Aspergillus flavus assessed as reduction in fungal cell growth incubated for 24 and 72 hrs by cup plate method
Nakaseomyces glabratus [18] = assay: Antifungal activity against Candida glabrata assessed as reduction in fungal cell growth incubated for 24 hrs by broth microdilution method
Candida albicans [19] = assay: Antifungal activity against Candida albicans assessed as inhibition zone at 20 ug/ml by disk diffusion method; details: read-out: IZ
Candida parapsilosis = assay: Antifungal activity against Candida parapsilosis ATCC 22019 assessed as reduction in fungal cell growth incubated for 48 hrs by broth microdilution method; details: Lodderomyces parapsilosis, ATCC 22019, 48 h
Aspergillus niger [20] = assay: Antifungal activity against Aspergillus niger assessed as inhibition zone at 100 ug/ml; details: read-out: IZ
Cryptococcus neoformans = assay: Antifungal activity against Cryptococcus neoformans LA314 assessed as reduction in fungal cell growth incubated for 48 hrs by broth microdilution method; details: LA314, 48 h
Candida albicans [21] = assay: Antifungal activity against Candida albicans TA
Candida albicans [22] = assay: Antifungal activity against Candida albicans assessed as reduction in fungal cell growth incubated for 48 hrs by broth microdilution susceptibility method
Candida tropicalis [23] = assay: Antifungal activity against Candida tropicalis assessed as reduction in fungal cell growth incubated for 24 hrs by broth microdilution method
Aspergillus niger [24] = assay: Antifungal activity against Aspergillus niger assessed as inhibition zone at 20 ug/ml by disk diffusion method; details: read-out: IZ
Staphylococcus aureus [25] = assay: Antifungal activity against methicillin-resistant Staphylococcus aureus after 24 hrs by broth microdilution assay
Staphylococcus aureus [26] = assay: Potency index, ratio for MIC of methicillin to MIC of compound for […] incubated for 24 hrs by broth microdilution method

OC(Cn1cncn1)(Cn1cncn1)c1ccc(F)cc1F [FLUCONAZOLE]
zone of inhibition at 100 µg/mL (Candida albicans [1]): 22 to 25 mm
MIC (Aspergillus niger [2]): 0.625 to 6.25 µg/mL (≈ 2.04 to 20.4 µM)
zone of inhibition at 125 µg/mL (Candida albicans [3]): 14 mm
MIC (Pichia kudriavzevii [4]): 1 to 4 µg/mL (≈ 3.27 to 13.1 µM)
MIC (Pichia kudriavzevii [5]): 2 to 8 µg/mL (≈ 6.53 to 26.1 µM)
MIC (Aspergillus fumigatus [6]): 2.5 µg/mL (≈ 8.16 µM)
MIC (Candida albicans [7]): 25 µg/mL (≈ 81.6 µM)
zone of inhibition at 20 µg/mL (Aspergillus flavus [8]): 19 to 22 mm
MIC (Nakaseomyces glabratus [9]): 2 to 8 µg/mL (≈ 6.53 to 26.1 µM)
zone of inhibition at 20 µg/mL (Aspergillus fumigatus [10]): 19 to 22 mm
MIC (Candida albicans [11]): 1 to 4 µg/mL (≈ 3.27 to 13.1 µM)
MIC (Candida albicans [12]): 2 to 8 µg/mL (≈ 6.53 to 26.1 µM)
MIC (Candida tropicalis [13]): 2 to 8 µg/mL (≈ 6.53 to 26.1 µM)
MIC (Aspergillus niger [14]): 2 to 8 µg/mL (≈ 6.53 to 26.1 µM)
MIC (Aspergillus niger [15]): 6.25 µg/mL (≈ 20.4 µM)
ED50 (Candida albicans [16]): 0.29 to 0.35 mg/kg
MIC (Aspergillus flavus [17]): 25 µg/mL (≈ 81.6 µM)
MIC (Nakaseomyces glabratus [18]): 1 to 4 µg/mL (≈ 3.27 to 13.1 µM)
zone of inhibition at 20 µg/mL (Candida albicans [19]): 19 to 22 mm
MIC (Candida parapsilosis): 2 to 8 µg/mL (≈ 6.53 to 26.1 µM)
zone of inhibition at 100 µg/mL (Aspergillus niger [20]): 22 to 25 mm
MIC (Cryptococcus neoformans): 2 to 8 µg/mL (≈ 6.53 to 26.1 µM)
MIC (Candida albicans [21]): 100 µg/mL (≈ 327 µM)
MIC (Candida albicans [22]): 6.25 µg/mL (≈ 20.4 µM)
MIC (Candida tropicalis [23]): 1 to 4 µg/mL (≈ 3.27 to 13.1 µM)
zone of inhibition at 20 µg/mL (Aspergillus niger [24]): 19 to 22 mm

COc1cccc(OC)c1C(=O)N[C@@H]1C(=O)N2[C@@H]1SC(C)(C)[C@@H]2C(=O)O [METHICILLIN]
MIC (Staphylococcus aureus [25]): > 250 µg/mL

FC(F)(F)c1cc(-c2ccc(I)cc2)nc2nnnn12
MIC (Candida albicans [11]): 62.5 µg/mL (≈ 160 µM)
Ratio (Staphylococcus aureus [26]): >64
